The test has as its system peripheral blood mononuclear cells (PBMCs). Briefly: IFN-γ ELISPOT assay (ex vivo) with subject PBMCs. It is filed as cell-based, human. To be noted: for response rate in ELIspot on addition of a DACP: Example 3 subject PBMCs, compared to the HTAPP without DACP. As to the method: IFNγ ELISpot analysis (for protocol see A. Lalvani, R. Brookes, S. Hambleton, W. J. Britton, A. V. S. Hill, A. J. McMichael, J Exp Med 1997; 186 (6): 859-865) was performed ex vivo (without further in vitro culturing for expansion) using PBMCs depleted of CD4+ and enriched for CD8+ T cells (CD8+ effectors), or depleted of CD8+ and enriched for CD4+ T cells (CD4+ effectors). Tests were performed in duplicate and with a positive and negative control, Multiscreen filter plates (Merck Millipore) pre-coated with IFNγ-specific antibodies (ELISpotPro kit, Mabtech). 267.000 Cells were used per plate. Plates were scanned using an AID Classic Robot ELISPOT Reader and analyzed by AID ELISPOT 7.0 software (AID Autoimmun Diagnostika). Antigen Peptides (except negative and positive control group) were done in duplicates, spot counts were taken as mean values of each duplicate.
The immunogenicity of each of the six peptides was analyzed by IFN-γ secretion by subject peripheral blood mononuclear cells (PBMCs) using ELIspot assay. […]
The immunogenicity of each peptide was assessed in peripheral blood mononuclear cells (PBMCs) from patients and using the IFN-γ-ELISPOT assay. ELISPOT results were considered positive if the number of spots was at least 2-fold higher than the negative control (medium) and at least 50 spots were detected. […] We also tested the effect of delivery aiding peptides (DACP-1) and peptide extension by overlapping tandemization and tandemization on the immunogenicity of the epitopes.

Setting [1] is: Table 4, HTAPP-DACP related to group therapy.
Where [2] appears, read: Table 6, further HTAPPs, HTAPP-DACPs and reference sequences.
Where [3] appears, read: Table 5, HTAPP-DACP related to group therapy.
[4] abbreviates: Table 2, HTAPP-DACP, response in ELISPOT experiments.
The mark [5] stands for this setting: Table 1, HTAPPs, response in ELISPOT experiments.

“52 (LLGRNSFEVLVCACPGRDRRQIKIWFQNRRMKWKK) [compound 52]”: the “Elispot [nspots/pM]” value under setting [1] is recorded as 275,0 nspots/pM.
On to “79 (AIYNEDKLMAKALLLYGADIERQIKIWFQNRRMKWKK) [compound 79]”, for which the “Elispot [nspots/pM]” value under setting [2] is 242,5 nspots/pM.
Turning to “59 (PSDQDLLRCCVLTSGIFETRQIKIWFQNRRMKWKK) [compound 59]”, under setting [3], the “Elispot [nspots/pM]” value is 100,8 nspots/pM.
On the same count and under the same terms, for “55 (MTEYKLVVVGARGVGKSALRQIKIWFQNRRMKWKK) [compound 55]” the value was 44,2 nspots/pM.
As for “54 (MLPQIPFLLLVSLNLVHGVFRQIKIWFQNRRMKWKK) [compound 54]”, the “Elispot [nspots/pM]” value under setting [3] was 246,7 nspots/pM.
With “KLVVVGAVGVGKSALTIRQIKIWFQNRRMKWKK [SEQ-ID-No.: 18]”, the “response rate in ELIspot on addition of a DACP” value was “increase in the response rate”.
Turning to “84 (PPSNATAETQPIPQKAAYLEAIFLRDWDSLYSHDLDTSADS) [compound 84]”, the “Elispot [nspots/pM]” value under setting [2] is on record as 197,5 nspots/pM.
On to “30 (KDYSVLYVVPGPVRFQRQIKIWFQNRRMKWKK) [compound 30]”, for which the “Elispot [nspots/pM]” value under setting [4] is on record as 234,0 nspots/pM.
With “35 (EYFMKQMNDARHGGWTTKMDRQIKIWFQNRRMKWKK) [compound 35]”, under setting [1], the “Elispot [nspots/pM]” value is 20,0 nspots/pM.
As for “25 (RQRLALEAEKAAYEERGAAEALSVVRQIKIWFQNRRMKWKK) [compound 25]”, the “Elispot [nspots/pM]” value under setting [4] is given as 317,5 nspots/pM.
For the substance “71 (QRQLNTALPQPFREAPAYSNRQIKIWFQNRRMKWKK) [compound 71]”, the “Elispot [nspots/pM]” value under setting [2] was 270,5 nspots/pM.
With “21 (ETNFKSLFHDLFQKVEERQIKIWFQNRRMKWKK) [compound 21]”, the “Elispot [nspots/pM]” value under setting [4] is 334,0 nspots/pM.
Regarding “13 (LSKNLVAQISALALQLAAYGNSITGIISSVLGHIS) [compound 13]”, the “Elispot [nspots/pM]” value under setting [5] is on record as 205 nspots/pM.
Regarding “17 (QSYPGSASLAAYSGMPRISKL) [compound 17]”, the “Elispot [nspots/pM]” value under setting [5] is reported as 202,5 nspots/pM.
On the same count and under the same terms, for 4 (ETNFKSLFHDLFQKVEE) [compound 4] the value was 233,5 nspots/pM.
Regarding “43 (IGHKVDAVFMKDGFFYFFHGTRQYRQIKIWFQNRRMKWKK) [compound 43]”, the “Elispot [nspots/pM]” value under setting [1] is on record as 134,2 nspots/pM.
On to 78 (GIYDALFDIESKVDPSK) [compound 78], for which the “Elispot [nspots/pM]” value under setting [2] is listed as 134,5 nspots/pM.
On to “51 (LLGRNSFEVHVCACPGRDRRQIKIWFQNRRMKWKK) [compound 51]”, for which the “Elispot [nspots/pM]” value under setting [1] is reported as 264,2 nspots/pM.
1 (KLVVVGAVGVGKSALTI) [compound 1]: the “Elispot [nspots/pM]” value under setting [5] is reported as 32,5 nspots/pM.
On to 76 (PQELWHFLTQNLSLPN) [compound 76], for which the “Elispot [nspots/pM]” value under setting [2] is given as 470,5 nspots/pM.
Regarding 69 (VAFLGCPGFAGVLQT) [compound 69], the “Elispot [nspots/pM]” value under setting [2] was 149,0 nspots/pM.
For “82 (LEKLYLYFNKISKIENLEKLIKRQIKIWFQNRRMKWKK) [compound 82]”, the “Elispot [nspots/pM]” value under setting [2] was 305,0 nspots/pM.
As to “44 (KAISTRDPLSKITEQEKDFLWRQIKIWFQNRRMKWKK) [compound 44]”, under setting [1], the “Elispot [nspots/pM]” value was 103,3 nspots/pM.
On to “18 (KLVVVGAVGVGKSALTIRQIKIWFQNRRMKWKK) [compound 18]”, for which the “Elispot [nspots/pM]” value under setting [4] was 447,5 nspots/pM.
Turning to “67 (YGIPFIETSTKTRQRVEDARQIKIWFQNRRMKWKK) [compound 67]”, the “Elispot [nspots/pM]” value under setting [3] is 248,3 nspots/pM.
In the case of 75 (SAANIRALNVPPSLA) [compound 75], under setting [2], the “Elispot [nspots/pM]” value was 196,0 nspots/pM.
“40 (HTLYGHTSTVCCMHLHEKRVRQIKIWFQNRRMKWKK) [compound 40]”: the “Elispot [nspots/pM]” value under setting [1] is on record as 95,0 nspots/pM.
Regarding “50 (LLGRNSFEVCVCACPGRDRRQIKIWFQNRRMKWKK) [compound 50]”, the “Elispot [nspots/pM]” value under setting [1] was 256,7 nspots/pM.
In the case of “83 (QSYPGSASLAAYSGMPRISKLRQIKIWFQNRRMKWKK) [compound 83]”, under setting [2], the “Elispot [nspots/pM]” value is 367,5 nspots/pM.
For the substance 11 (SPLTGGNMAF) [compound 11], under setting [5], the “Elispot [nspots/pM]” value was 145,5 nspots/pM.
For “45 (KIGDFGLATEKSRWSGSHQRQIKIWFQNRRMKWKK) [compound 45]”, the “Elispot [nspots/pM]” value under setting [1] was 55,0 nspots/pM.
For the substance “8 (KKIRKPRTIYSSLQLQAAAYGIYDALFDIESKVDPSK) [compound 8]”, the “Elispot [nspots/pM]” value under setting [5] is 351,5 nspots/pM.
As to “27 (LFKDLGLPARTVSTTFRQIKIWFQNRRMKWKK) [compound 27]”, under setting [4], the “Elispot [nspots/pM]” value is on record as 196,0 nspots/pM.
With 10 (LFKDLGLPARTVSTTF) [compound 10], the “Elispot [nspots/pM]” value under setting [5] is on record as 143,5 nspots/pM.
Regarding “28 (SPRQCSSWTLAAYKLAAFPTSLRQIKIWFQNRRMKWKK) [compound 28]”, the “Elispot [nspots/pM]” value under setting [4] was 320,0 nspots/pM.
In the case of “46 (KLVVVGACGVGKSALTIQLIQNHRQIKIWFQNRRMKWKK) [compound 46]”, the “Elispot [nspots/pM]” value under setting [1] is on record as 54,2 nspots/pM.
With “33 (ATYLWWVNNQSLPVSPRAAYLLLTASLLTFWNPRQIKIWFQNRRMKWKK) [compound 33]”, the “Elispot [nspots/pM]” value under setting [1] is recorded as 271,7 nspots/pM.
For the substance “68 (YKLVVVGAGDVGKSALTIQLIQNHFVDRQIKIWFQNRRMKWKK) [compound 68]”, the “Elispot [nspots/pM]” value under setting [3] is 154,2 nspots/pM.
Consider “48 (KVKIPVAIKTSPKANKEIRQIKIWFQNRRMKWKK) [compound 48]”, for which, under setting [1], the “Elispot [nspots/pM]” value is 39,2 nspots/pM.
As for “2 (LANSPDLSHLAYYVTKVKEEDAF) [compound 2]”, the “Elispot [nspots/pM]” value under setting [5] is 419,5 nspots/pM.
On to “20 (LQEFRRFQDPGRIVAIVRQIKIWFQNRRMKWKK) [compound 20]”, for which the “Elispot [nspots/pM]” value under setting [4] is 500,0 nspots/pM.
“66 (TIHYNYMCNSSCMGSMNRRPILTIRQIKIWFQNRRMKWKK) [compound 66]”: under setting [3], the “Elispot [nspots/pM]” value is reported as 13,3 nspots/pM.
For the substance “LQEFRRFQDPGRIVAIVRQIKIWFQNRRMKWKK [SEQ-ID-No.: 20]”, the “response rate in ELIspot on addition of a DACP” value is recorded as “increase in the response rate”.
With 74 (SPITSVLSADLFPKA) [compound 74], the “Elispot [nspots/pM]” value under setting [2] was 128,5 nspots/pM.
With “62 (RVCACPGRDWRTEEENLRKRQIKIWFQNRRMKWKK) [compound 62]”, the “Elispot [nspots/pM]” value under setting [3] was 279,2 nspots/pM.
“34 (DSTPPPGTRVLAMAIYKQSQRQIKIWFQNRRMKWKK) [compound 34]”: under setting [1], the “Elispot [nspots/pM]” value is on record as 35,8 nspots/pM.
In the case of “70 (ESGCEERGAAMIQTVDPAAHRQIKIWFQNRRMKWKK) [compound 70]”, under setting [2], the “Elispot [nspots/pM]” value is reported as 153,5 nspots/pM.
In the case of “9 (LPVMLLIVARPVKLAAFPTSLSD) [compound 9]”, the “Elispot [nspots/pM]” value under setting [5] is 289,5 nspots/pM.
With “32 (AAKALMSAFYTFRYPLSLRQIKIWFQNRRMKWKK) [compound 32]”, the “Elispot [nspots/pM]” value under setting [1] is recorded as 75,8 nspots/pM.
“60 (PSDQDLLRCHVLTSGIFETRQIKIWFQNRRMKWKK) [compound 60]”: the “Elispot [nspots/pM]” value under setting [3] is 163,3 nspots/pM.
16 (RERRVASWAMSFERL) [compound 16]: the “Elispot [nspots/pM]” value under setting [5] was 326,5 nspots/pM.
Consider “64 (STRDPLSEITKQEKDFLWSHRQIKIWFQNRRMKWKK) [compound 64]”, for which the “Elispot [nspots/pM]” value under setting [3] was 80,8 nspots/pM.
Turning to “36 (EYKLVVVGAVGVGKSALTIQRQIKIWFQNRRMKWKK) [compound 36]”, the “Elispot [nspots/pM]” value under setting [1] was 140 nspots/pM.
Consider “41 (HTLYGHTSTVHCMHLHEKRVRQIKIWFQNRRMKWKK) [compound 41]”, for which the “Elispot [nspots/pM]” value under setting [1] is 39,2 nspots/pM.
Take “19 (LANSPDLSHLAYYVTKVKEEDAFRQIKIWFQNRRMKWKK) [compound 19]”: under setting [4], the “Elispot [nspots/pM]” value is given as 430,5 nspots/pM.
